This note sets out measurements from US9676782B2, “Substituted pyrazolo[1,5-a]pyrazines as negative allosteric modulators of metabotropic glutamate receptor 3” (Vanderbilt University, priority 2014, dated 2017).

In one assay the target is rat mGlu3 (Rattus norvegicus (Rat), UniProt P31422). Put plainly: mGlu3 Ca2+ flux assay. In kind it is cell-based. The note with it: for IC50: NAM potency, decrease of glutamate EC80 response, >30,000 = no measurable activity, >10,000 = no plateau, read-out: rat mGlu3 IC50; for remaining activity at 30 µM: amplitude of response at 30 μM test compound as % of maximal response to glutamate, read-out: rat mGlu3 Glu max (%). Put shortly:
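Cells expressing rat mGlu3 were grown overnight at 37° C. under 5% CO2, then loaded with dye. After dye removal they received 20 μL of assay buffer and sat 10 minutes at room temperature. Calcium flux was read on a Hamamatsu FDSS7000, and fluorescence was expressed as fold over basal and normalized to the maximal glutamate response.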

The target of a further assay is rat mGlu5 (Rattus norvegicus (Rat), UniProt P31424). Put plainly: mGlu5 Ca2+ flux assay. In kind it is cell-based. The note with it: for Emax at 30 µM: PAM, amplitude of response at 30 μM test compound as % of maximal response to glutamate, read-out: rat mGlu5 Glu max (%); for Fold selectivity (mGlu3 vs. mGlu5): ratio of rat mGlu5 EC50 or IC50 to rat mGlu3 IC50; for EC50: read-out: rat mGlu5 EC50 or IC50. In short, it runs like this: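 Transfected cells grown overnight at 37° C/5% CO2, dye-loaded, then 5 min in assay buffer at RT before Ca2+ flux read on FDSS7000. Fluorescence as F/F0 fold over basal, normalized to maximal glutamate response; EC50 from unconstrained 4-parameter logistic fit, triplicates weighted evenly.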
Chain of rat mGlu5 (P31424 21-1203): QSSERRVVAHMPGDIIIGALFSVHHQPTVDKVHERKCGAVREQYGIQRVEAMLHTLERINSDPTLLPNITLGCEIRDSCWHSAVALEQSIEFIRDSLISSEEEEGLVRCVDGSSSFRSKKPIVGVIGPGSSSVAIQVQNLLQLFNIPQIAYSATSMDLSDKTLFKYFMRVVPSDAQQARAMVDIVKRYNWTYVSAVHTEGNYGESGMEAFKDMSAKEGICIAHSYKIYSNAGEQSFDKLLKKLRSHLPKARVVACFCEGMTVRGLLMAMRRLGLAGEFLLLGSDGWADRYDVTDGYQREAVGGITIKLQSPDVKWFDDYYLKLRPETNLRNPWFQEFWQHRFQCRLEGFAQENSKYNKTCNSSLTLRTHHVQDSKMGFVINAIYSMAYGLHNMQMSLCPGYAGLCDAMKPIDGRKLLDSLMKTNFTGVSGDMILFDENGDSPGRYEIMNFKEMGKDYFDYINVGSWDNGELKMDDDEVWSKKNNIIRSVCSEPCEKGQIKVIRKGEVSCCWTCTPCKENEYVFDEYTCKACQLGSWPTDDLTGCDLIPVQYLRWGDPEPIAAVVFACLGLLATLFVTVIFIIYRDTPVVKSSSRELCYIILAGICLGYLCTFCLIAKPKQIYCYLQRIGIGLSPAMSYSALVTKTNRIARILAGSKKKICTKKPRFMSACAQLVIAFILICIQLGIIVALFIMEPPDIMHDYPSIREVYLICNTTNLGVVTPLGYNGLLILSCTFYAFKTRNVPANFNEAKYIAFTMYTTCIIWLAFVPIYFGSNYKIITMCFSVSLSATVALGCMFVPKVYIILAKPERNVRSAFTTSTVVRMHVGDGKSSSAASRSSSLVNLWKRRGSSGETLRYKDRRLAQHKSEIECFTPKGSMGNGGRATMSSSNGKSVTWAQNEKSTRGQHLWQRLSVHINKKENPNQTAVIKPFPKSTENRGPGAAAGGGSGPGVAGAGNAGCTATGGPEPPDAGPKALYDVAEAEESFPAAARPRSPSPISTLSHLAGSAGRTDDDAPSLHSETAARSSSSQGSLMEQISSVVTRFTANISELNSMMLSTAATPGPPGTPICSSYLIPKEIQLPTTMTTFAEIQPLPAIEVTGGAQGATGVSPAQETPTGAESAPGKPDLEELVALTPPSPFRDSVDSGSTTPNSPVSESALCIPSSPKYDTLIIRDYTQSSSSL

Chain of rat mGlu3 (P31422 23-879): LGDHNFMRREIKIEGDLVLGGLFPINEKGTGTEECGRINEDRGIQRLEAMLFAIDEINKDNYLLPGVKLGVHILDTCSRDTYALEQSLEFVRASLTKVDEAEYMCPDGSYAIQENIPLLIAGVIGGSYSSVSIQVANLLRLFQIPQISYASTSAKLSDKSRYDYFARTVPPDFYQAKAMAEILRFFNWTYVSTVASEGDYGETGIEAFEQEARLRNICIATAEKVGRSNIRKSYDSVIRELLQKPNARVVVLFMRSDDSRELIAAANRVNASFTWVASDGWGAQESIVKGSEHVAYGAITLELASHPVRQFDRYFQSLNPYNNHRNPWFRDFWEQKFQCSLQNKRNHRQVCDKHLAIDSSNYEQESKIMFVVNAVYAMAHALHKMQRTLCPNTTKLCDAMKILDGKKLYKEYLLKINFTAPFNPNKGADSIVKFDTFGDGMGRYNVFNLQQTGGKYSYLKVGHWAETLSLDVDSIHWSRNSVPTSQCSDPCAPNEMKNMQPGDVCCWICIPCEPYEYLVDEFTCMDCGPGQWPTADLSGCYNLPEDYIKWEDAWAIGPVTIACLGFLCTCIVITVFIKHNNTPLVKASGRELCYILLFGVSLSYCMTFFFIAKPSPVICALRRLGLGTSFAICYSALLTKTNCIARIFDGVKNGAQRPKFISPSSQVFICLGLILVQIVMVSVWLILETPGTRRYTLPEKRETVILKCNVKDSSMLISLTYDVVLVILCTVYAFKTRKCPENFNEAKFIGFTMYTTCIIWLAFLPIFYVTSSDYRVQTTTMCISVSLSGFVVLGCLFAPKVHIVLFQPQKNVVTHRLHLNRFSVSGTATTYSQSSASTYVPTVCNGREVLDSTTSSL

On to `O=C1c2cc(CNc3ccc(F)c(F)c3)nn2CCN1c1ccc(F)cc1` [Compound 31, 2-(((3,4-difluorophenyl)amino)methyl)-5-(4-fluorophenyl)-6,7-dihydropyrazolo[1,5-a]pyrazin-4(5H)-one], for which, on rat mGlu3, the IC50 was found to be 462 nM and the remaining activity at 30 µM turned out to be 2.02%. For the same molecule, on rat mGlu5, the Emax at 30 µM came to 75.8%, the “Fold selectivity (mGlu3 vs. mGlu5)” value worked out at 5.37 and the EC50 worked out at 2480 nM.
For `COc1cccc(NCc2cc3n(n2)CCN(c2ccc(F)cc2)C3=O)c1` [Compound 10, 5-(4-fluorophenyl)-2-(((3-methoxyphenyl)amino)methyl)-6,7-dihydropyrazolo[1,5-a]pyrazin-4(5H)-one], at rat mGlu3, the IC50 came to 1780 nM and the remaining activity at 30 µM worked out at 2.01%. For the same molecule, on rat mGlu5, the “Fold selectivity (mGlu3 vs. mGlu5)” value was greater than 16 and the EC50 is greater than 30000 nM.
Taken in the same sequence, the figures for `Cc1ccc(N2CCn3nc(CNc4ccc(OC(F)F)cc4F)cc3C2=O)nc1` [Compound 144, 2-(((4-(difluoromethoxy)-2-fluorophenyl)amino)methyl)-5-(5-methylpyridin-2-yl)-6,7-dihydropyrazolo[1,5-a]pyrazin-4(5H)-one] were 1740 nM, 5.68%, greater than 17 and greater than 30000 nM.
Regarding `O=C1c2cc(CNc3ccc4c(c3)OC(F)(F)O4)nn2CCN1c1ccc(F)cc1` [Compound 39, 2-(((2,2-difluorobenzo[d][1,3]dioxol-5-yl)amino)methyl)-5-(4-fluorophenyl)-6,7-dihydropyrazolo[1,5-a]pyrazin-4(5H)-one], on rat mGlu3, the IC50 turned out to be 2880 nM and the remaining activity at 30 µM is 1.95%. In addition, at rat mGlu5, the Emax at 30 µM was found to be 75.7%, the “Fold selectivity (mGlu3 vs. mGlu5)” value is reported as greater than 3.4 and the EC50 is greater than 10000 nM.
On to `COc1ccc(N(C)Cc2cc3n(n2)CCN(c2ccc(C#N)cc2)C3=O)cc1` [Compound 118, 4-(2-(((4-methoxyphenyl)(methyl)amino)methyl)-4-oxo-6,7-dihydropyrazolo[1,5-a]pyrazin-5(4H)-yl)benzonitrile], for which, on rat mGlu3, the IC50 came out at 1970 nM and the remaining activity at 30 µM is 1.63%. Also, on rat mGlu5, the “Fold selectivity (mGlu3 vs. mGlu5)” value was greater than 15 and the EC50 was greater than 30000 nM.
The matching figures for `COc1ccc(N(C)Cc2cc3n(n2)CCN(c2cccc(C)c2)C3=O)cc1` [Compound 103, 2-(((4-methoxyphenyl)(methyl)amino)methyl)-5-(m-tolyl)-6,7-dihydropyrazolo[1,5-a]pyrazin-4(5H)-one]: 805 nM, 1.16%, greater than 37 and greater than 30000 nM.
In the case of `CC(Nc1ccc(F)cc1)c1cc2n(n1)CCN(c1ccc(F)cc1)C2=O` (centres unmarked) [Compound 171, 5-(4-fluorophenyl)-2-(1-((4-fluorophenyl)amino)ethyl)-6,7-dihydropyrazolo[1,5-a]pyrazin-4(5H)-one], on rat mGlu3, the IC50 was determined as 2150 nM and the remaining activity at 30 µM turned out to be 0.39%. On rat mGlu5, the “Fold selectivity (mGlu3 vs. mGlu5)” value is reported as greater than 13 and the EC50 is greater than 30000 nM.
`O=C1c2cc(CNc3cccc(F)c3F)nn2CCN1c1ccc(F)cc1` [Compound 27, 2-(((2,3-difluorophenyl)amino)methyl)-5-(4-fluorophenyl)-6,7-dihydropyrazolo[1,5-a]pyrazin-4(5H)-one]: at rat mGlu3, the IC50 was 586 nM and the remaining activity at 30 µM was found to be 2.82%. Besides, on rat mGlu5, the Emax at 30 µM was 90.8%, the “Fold selectivity (mGlu3 vs. mGlu5)” value was found to be 4.06 and the EC50 is 2380 nM.
Take `C[C@H]1CN(c2ccc(F)cc2)C(=O)c2cc(CNc3ccccc3F)nn21` [Compound 43, (S)-5-(4-fluorophenyl)-2-(((2-fluorophenyl)amino)methyl)-7-methyl-6,7-dihydropyrazolo[1,5-a]pyrazin-4(5H)-one]: on rat mGlu3, the IC50 was determined as 2540 nM and the remaining activity at 30 µM worked out at 1.61%. Also, on rat mGlu5, the Emax at 30 µM was determined as 90.6%, the “Fold selectivity (mGlu3 vs. mGlu5)” value came to 2.06 and the EC50 was found to be 5230 nM.
In the case of `COc1ccc(N(C)Cc2cc3n(n2)CCN(c2ccc(F)c(F)c2)C3=O)cc1` [Compound 97, 5-(3,4-difluorophenyl)-2-(((4-methoxyphenyl)(methyl)amino)methyl)-6,7-dihydropyrazolo[1,5-a]pyrazin-4(5H)-one], at rat mGlu3, the IC50 amounted to 1080 ± 240 nM and the remaining activity at 30 µM turned out to be 1.74 ± 0.56%. Further, at rat mGlu5, the “Fold selectivity (mGlu3 vs. mGlu5)” value is recorded as greater than 27 and the EC50 is greater than 30000 nM.
As to `O=C1c2cc(CNc3ccc(F)cc3F)nn2CCN1c1ccc(F)cc1` [Compound 28, 2-(((2,4-difluorophenyl)amino)methyl)-5-(4-fluorophenyl)-6,7-dihydropyrazolo[1,5-a]pyrazin-4(5H)-one], at rat mGlu3, the IC50 stood at 1250 nM and the remaining activity at 30 µM was found to be 1.76%. In addition, on rat mGlu5, the Emax at 30 µM stood at 80.6%, the “Fold selectivity (mGlu3 vs. mGlu5)” value is listed as 1.21 and the EC50 stood at 1510 nM.
`COc1ccc(N(C)Cc2cc3n(n2)CCN(c2ccc(OC(F)F)cc2)C3=O)cc1` [Compound 123, 5-(4-(difluoromethoxy)phenyl)-2-(((4-methoxyphenyl)(methyl)amino)methyl)-6,7-dihydropyrazolo[1,5-a]pyrazin-4(5H)-one]: on rat mGlu3, the IC50 amounted to 1030 nM and the remaining activity at 30 µM was found to be 0.3%. Further, on rat mGlu5, the “Fold selectivity (mGlu3 vs. mGlu5)” value is given as greater than 29 and the EC50 is greater than 30000 nM.
Turning to `C[C@H]1CN(c2ccc(F)cc2)C(=O)c2cc(CNc3cc(F)ccc3F)nn21` [Compound 71, (S)-2-(((2,5-difluorophenyl)amino)methyl)-5-(4-fluorophenyl)-7-methyl-6,7-dihydropyrazolo[1,5-a]pyrazin-4(5H)-one], on rat mGlu3, the IC50 worked out at 1310 nM and the remaining activity at 30 µM was 1.6%. In addition, on rat mGlu5, the Emax at 30 µM was determined as 76.6%, the “Fold selectivity (mGlu3 vs. mGlu5)” value is reported as 7.33 and the EC50 turned out to be 9600 nM.
With `Cc1ccccc1NCc1cc2n(n1)CCN(c1ccc(F)cc1)C2=O` [Compound 4, 5-(4-fluorophenyl)-2-((o-tolylamino)methyl)-6,7-dihydropyrazolo[1,5-a]pyrazin-4(5H)-one], at rat mGlu3, the IC50 is 2390 nM and the remaining activity at 30 µM worked out at 2.62%. Moreover, at rat mGlu5, the Emax at 30 µM turned out to be 42.2%, the “Fold selectivity (mGlu3 vs. mGlu5)” value is recorded as greater than 4.1 and the EC50 was greater than 10000 nM.
In the case of `CN(Cc1cc2n(n1)CCN(c1ccc(F)cc1)C2=O)c1cc(F)cc(F)c1` [Compound 94, 2-(((3,5-difluorophenyl)(methyl)amino)methyl)-5-(4-fluorophenyl)-6,7-dihydropyrazolo[1,5-a]pyrazin-4(5H)-one], at rat mGlu3, the IC50 came out at 660 nM and the remaining activity at 30 µM was determined as 1.58%. Besides, on rat mGlu5, the Emax at 30 µM amounted to 29.9%, the “Fold selectivity (mGlu3 vs. mGlu5)” value is greater than 15 and the EC50 was greater than 10000 nM.
For the molecule `COc1ccc(NCc2cc3n(n2)CCN(c2ccc(F)c(F)c2)C3=O)cc1` [Compound 1, 5-(3,4-Difluorophenyl)-2-(((4-methoxyphenyl)amino)methyl)-6,7-dihydropyrazolo[1,5-a]pyrazin-4(5H)-one], the remaining activity at 30 µM at rat mGlu3 amounted to 4.04%. Moreover, at rat mGlu5, the “Fold selectivity (mGlu3 vs. mGlu5)” value is greater than 20 and the concentration giving a half-maximal response (EC50) was greater than 30000 nM.
